In patent US11324832B2, “Tripartite modulators of endosomal G protein-coupled receptors” (Endosome Therapeutics, Inc., priority 2015, dated 2022):
Where a SMILES comes first, the peptide text is derived from it. [ ]: non-standard residue; d: D form. The star is where a group is joined. X1 = CC(C)CCC[C@@H](C)[C@H]1CC[C@H]2[C@@H]3CC[C@H]4C[C@@H](O*)CC[C@]4(C)[C@H]3CC[C@]12C; PEG4 = NCCOCCOCCOCCOCCC(=O)O; PEG3 = NCCOCCOCCOCCC(=O)O

Key:
[1] = tested on: capsaicin-evoked mechanical hyperalgesia in mice; assay: Capsaicin-evoked mechanical hyperalgesia and edema in mice
NK1R [2] = target: T1, NK1R (Rattus norvegicus, UniProt P14600); assay: FRET biosensors of compartmentalized signaling (ERK, PKC, cAMP) in NK1R-expressing HEK293 cells; assay type: cell-based; parameters: Full length and truncated 6312 rat HA-NK1R have been described; expressed in transfected cells; host or cells: HEK293 (transient); details: for effect on SP activation of cytosolic ERK / effect on SP-induced plasma membrane cAMP / effect on plasma membrane PKC activity: endocytic inhibitor plus SP 1 nM; for effect on SP stimulation of cytosolic PKC / effect on SP stimulation of cytosolic cAMP / effect on SP stimulation of nuclear ERK: endocytic or signaling inhibitor plus SP 1 nM
Description: To study the link between NK1R trafficking and signaling, the NK1R and Förster Resonance Energy Transfer (FRET) biosensors targeted to detect activated ERK in the cytosol (CytoEKAR) or nucleus (NucEKAR, FIG. 2A), activated PKC at the plasma membrane (pmCKAR) or in the cytosol (CytoCKAR, FIG. 2C), and cAMP at the plasma membrane (pmEpac2) or in the cytosol (CytoEpac2, FIG. 2E) were expressed in HEK293 cells.
HEK293 cells were transfected with 55 ng/well rat NK1R with N-terminal HA. 11 epitope tag (HA-NK1R) or CLR plus RAMP1 and 40 ng/well FRET biosensors. FRET was assessed 48 h after transfection, following serum restriction (0.5% FBS overnight). For experiments using clathrin or dynamin siRNA, cells were transfected with 55 ng/well rat HA-NK1R, 40 ng/well FRET biosensor and 25 nM/well scrambled, clathrin or dynamin ON-TARGETplus SMARTpool siRNA (GE Dharmacon). FRET was assessed 72 h after transfection, following serum restriction (0.5% FBS overnight). Cells were equilibrated in HBSS at 37° C. and FRET was analyzed using a GE Healthcare INCell 2000 Analyzer. For GFP/RFP emission ratio analysis, cells were sequentially excited using a FITC filter (490/20) with emission measured using dsRed (605/52) and FITC (525/36) filters, and a polychroic optimized for the FITC/dsRed filter pair (Quad4). For CFP/YFP emission ratio analysis, cells were sequentially excited using a CFP filter (430/24) with emission measured using YFP (535/30) and CFP (470/24) filters, and a polychroic optimized for the CFP/YFP filter pair (Quad3). Cells were imaged every 1 min, allowing image capture of 14 wells per minute. Baseline emission ratio images were captured for 4 min. […] Cells were then stimulated with the positive control (200 nM phorbol 12,13-dibutyrate for ERK; 200 nM phorbol 12,13-dibutyrate with phosphatase inhibitor cocktail for PKC; 10 μM forskolin, 100 μM 3-isobutyl-1-methylxanthine, 100 nM PGE1 for cAMP) for 10 min to generate a maximal increase, and positive emission ratio images were captured for 4 min. Data were analyzed as described and expressed as emission ratios relative to baseline for each cell (F/F0). Cells with >10% change in F/F0 after stimulation with positive controls were selected for analysis.

NK1R [3] = target: T1, NK1R; assay: BRET of NK1R trafficking (KRas-Venus, Rab5a-Venus) in HEK293 cells; assay type: cell-based; parameters: Full length and truncated 6312 rat HA-NK1R have been described; expressed in transfected cells; host or cells: HEK293 (transient); details: inhibitor plus SP
Description: Bioluminescence Resonance Energy Transfer (BRET) was employed to quantitatively assess the proximity of the NK1R to key regulators of GPCR trafficking (βarrs), and resident proteins of plasma (KRas) and early endosomal (Rab5a) membranes in HEK293 cells (FIG. 1A).
HEK293 cells were transfected with the following cDNAs: 1 μg NK1R-RLuc8 or 1 μg CLR-RLuc8+1 μg Myc-RAMP1+4 μg KRas-Venus, 4 μg Rab5a-Venus, 4 μg βarr1-YFP, or 4 μg βarr2-YFP; or 1 μg NK1R+0.5 μg Gαq-RLuc8+1 μg Gβ1+4 μg Gγ2-Venus; or 1 μg NK1R+0.5 μg Gαq-RLuc8+1 μg Gβ1+1 μg Gγ2+4 μg Rab5a-Venus. After 48 h, cells were equilibrated in Hank's balanced salt solution (HBSS) at 37° C., and incubated with the RLuc substrate coelenterazine h (5 μM, 15 min).

[4] = tested on: CFA-induced mechanical hyperalgesia in mice; assay: CFA-induced mechanical hyperalgesia in mice; assay type: in vivo, mouse; details: for effect on CFA-induced sustained mechanical hyperalgesia: endocytic inhibitor i.t. 36 h after CFA
Source text: (§1) Investigators were unaware of test agents.

[5] = tested on: formalin-evoked nocifensive behavior in mice; assay: Formalin-evoked nocifensive behavior in mice; assay type: in vivo, mouse; details: for effect on formalin-evoked nocifensive behavior: i.t. 30 min before intraplantar formalin
Source text: as §1

[6] = i.t. 30 min before intraplantar capsaicin
[7] = i.t. 3 h before intraplantar capsaicin
[8] = preincubated 30 min, then immediately challenged with SP
[9] = i.t. 36 h after intraplantar CFA

T1 sequence (P14600 whole entry, the tested form may be a part): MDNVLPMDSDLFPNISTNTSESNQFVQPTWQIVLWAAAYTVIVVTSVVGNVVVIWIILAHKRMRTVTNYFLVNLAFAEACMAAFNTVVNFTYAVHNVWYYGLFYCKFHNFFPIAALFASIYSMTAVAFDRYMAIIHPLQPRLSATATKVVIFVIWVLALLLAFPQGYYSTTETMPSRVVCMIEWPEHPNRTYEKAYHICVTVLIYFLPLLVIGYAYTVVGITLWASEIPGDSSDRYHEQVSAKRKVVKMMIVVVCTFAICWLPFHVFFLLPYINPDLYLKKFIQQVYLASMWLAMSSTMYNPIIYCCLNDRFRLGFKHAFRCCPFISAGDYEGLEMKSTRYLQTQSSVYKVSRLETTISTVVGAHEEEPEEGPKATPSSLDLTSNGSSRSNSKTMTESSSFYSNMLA

Row | effect on plasma membrane PKC activity (NK1R [2]) | effect on SP stimulation of cytosolic PKC (NK1R [2]) | effect on SP stimulation of cytosolic cAMP (NK1R [2]) | effect on SP stimulation of nuclear ERK (NK1R [2]) | effect on SP-induced NK1R endocytosis (BRET KRas-Venus decrease, Rab5a-Venus increase) (NK1R [3]) | Compound | effect on capsaicin-evoked edema (left paw thickness) [1, 6] | effect on capsaicin-evoked mechanical hyperalgesia (von Frey, left paw) [1, 6] | effect on SP activation of cytosolic ERK (NK1R [2]) | effect on SP-induced plasma membrane cAMP (NK1R [2]) | effect on CFA-induced sustained mechanical hyperalgesia [4] | effect on formalin-evoked nocifensive behavior [5] | further results
1 | amplified plasma membrane PKC activity | abolished | abolished | abolished | blocked | O=C(N/N=C/c1cc(O)c(O)cc1O)c1cc2ccccc2cc1O [Dy4] | unaffected | inhibited hyperalgesia | did not suppress SP activation of cytosolic ERK or plasma membrane cAMP, but caused both responses to become sustained | did not suppress SP activation of cytosolic ERK or plasma membrane cAMP, but caused both responses to become sustained | partially reversed | inhibited both phases of nocifensive behavior | –
2 | amplified plasma membrane PKC activity | abolished | abolished | abolished | blocked | O=C1NC(=NS(=O)(=O)c2cccc3ccccc23)S/C1=C\c1ccc(Br)cc1 [PS2] | unaffected | inhibited hyperalgesia | did not suppress SP activation of cytosolic ERK or plasma membrane cAMP, but caused both responses to become sustained | did not suppress SP activation of cytosolic ERK or plasma membrane cAMP, but caused both responses to become sustained | partially reversed | inhibited both phases of nocifensive behavior | effect on paw withdrawal responses of the uninjected right hind paw ([1]; intrathecal treatment): did not affect
3 | – | – | – | – | – | CC(=O)N[C@@H](CC(=O)O[C@H]1CC[C@@]2(C)[C@@H](CC[C@@H]3[C@@H]2CC[C@]2(C)[C@@H]([C@H](C)CCCC(C)C)CC[C@@H]32)C1)C(=O)NCCOCCOCCOCCOCCC(=O)NCCOCCOCCOCCC(=O)NCCOCCOCCOCCOCCC(=O)N[C@H](CCCNC(=N)N)C(=O)N1CCC[C@H]1C(=O)N[C@@H](CCCCN)C(=O)N1CCC[C@H]1C(=O)N[C@@H](CCC(N)=O)C(=O)N[C@@H](CCC(N)=O)C(=O)N[C@H](Cc1c[nH]c2ccccc12)C(=O)N[C@@H](Cc1ccccc1)C(=O)N[C@H](Cc1c[nH]c2ccccc12)C(=O)N[C@@H](CC(C)C)C(=O)N[C@@H](CC(C)C)C(N)=O [Compound 1] (Ac-D(X1)[PEG4][PEG3][PEG4][dR]PKPQQ[dW]F[dW]LL-NH2) | – | – | – | – | – | – | delay of analgesia ([1]; i.t. 30 min after capsaicin): 3 h; duration of analgesia ([1]; i.t. 30 min after capsaicin): > 6 h; duration of inhibition of capsaicin-evoked hyperalgesia [1, 7]: > 120 min; effect on capsaicin-evoked mechanical hyperalgesia (von Frey, left paw) [1, 7]: markedly inhibited capsaicin-evoked hyperalgesia; antagonism of SP activation of cytosolic ERK, pre-incubation (NK1R [2]; [8]): blocked activation of nuclear and cytosolic ERK; antagonism of SP activation of nuclear ERK, pre-incubation (NK1R [2]; [8]): blocked activation of nuclear and cytosolic ERK; antagonism of SP activation of nuclear ERK, pulse incubation (NK1R [2]; pulse incubated 30 min, washed, SP 4 h later): alone inhibited nuclear ERK; duration of analgesia [4, 9]: > 6 h; time after which analgesic [4, 9]: 4 h; effect on formalin-evoked nocifensive behavior (both phases) ([5]; i.t. 3 h before intraplantar formalin): markedly inhibited both phases of nocifensive behavior
